Source: article PMC7481428, “Celastrol induces ROS-mediated apoptosis via directly targeting peroxiredoxin-2 in gastric cancer cells” (Theranostics, 2020)

Target: T1, peroxiredoxin-2 (Prdx2) (Homo sapiens, UniProt P32119)
T1 construct: His-tagged recombinant Prdx2 (rhPrdx2)
T1 sequence (P32119 2-198): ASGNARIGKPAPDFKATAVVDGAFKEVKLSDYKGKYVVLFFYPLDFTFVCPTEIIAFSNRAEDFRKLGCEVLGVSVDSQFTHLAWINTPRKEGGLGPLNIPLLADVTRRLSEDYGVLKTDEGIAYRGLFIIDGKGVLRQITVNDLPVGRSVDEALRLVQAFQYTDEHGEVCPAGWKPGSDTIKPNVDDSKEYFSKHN
Assay: ITC (also SPR KD […]; peroxidase inhibition IC50 […])
Type: binding

**Q.** With CC1=C(O)C(=O)C=C2C1=CC=C1[C@@]2(C)CC[C@@]2(C)[C@@H]3C[C@](C)(C(=O)O)CC[C@]3(C)CC[C@]12C [Celastrol] as the molecule, how does the Kd read?
**A.** 650 nM
